Reference: ChEMBL document CHEMBL2016493, “Design, synthesis, synergistic antimicrobial activity and cytotoxicity of 4-aryl substituted 3,4-dihydropyrimidinones of curcumin” (Bioorg Med Chem Lett, 2012)
Active and inactive are the calls of the source. The rule behind the calls is not given here.

Columns and labels:
Staphylococcus aureus [1] = assay: Antibacterial activity against Staphylococcus aureus ATCC 11632 at 40 uM/ml after 24 hrs by kirby-bauer method; format: functional
Staphylococcus aureus [2] = assay: Antibacterial activity against Staphylococcus aureus ATCC 11632 at 80 uM/ml after 24 hrs by kirby-bauer method; format: functional; settings: ATCC 11632, 24 h, read-out: IZ
Curvularia lunata [3] = assay: Antifungal activity against Curvularia lunata MTCC 581 at 160 uM/ml after 48 hrs by paper disc diffusion method; format: functional; settings: MTCC 581, 48 h, read-out: IZ
Curvularia lunata [4] = assay: Antifungal activity against Curvularia lunata MTCC 581 at 80 uM/ml after 48 hrs by paper disc diffusion method; format: functional; settings: MTCC 581, 48 h, read-out: IZ
Salmonella typhimurium [5] = assay: Antibacterial activity against Salmonella typhimurium ATCC 23564 at 80 uM/ml after 24 hrs by kirby-bauer method; format: functional
Salmonella typhimurium [6] = assay: Antibacterial activity against Salmonella typhimurium ATCC 23564 at 160 uM/ml after 24 hrs by kirby-bauer method; format: functional, Salmonella enterica subsp. enterica serovar Typhimurium; settings: for zone of inhibition at 160 µM: Salmonella enterica, ATCC 23564, 24 h, read-out: IZ; for inhibition zone (IZ): Salmonella enterica subsp. enterica serovar Typhimurium
Curvularia lunata [7] = assay: Antifungal activity against Curvularia lunata MTCC 581 at 20 uM/ml after 48 hrs by paper disc diffusion method; format: functional; settings: for zone of inhibition at 20 µM: MTCC 581, 48 h, read-out: IZ
[8] = tested on: Burkholderia pseudomallei; assay: Antibacterial activity against Burkholderia pseudomallei NTCC 10274 at 40 uM/ml after 24 hrs by kirby-bauer method; format: functional; settings: for zone of inhibition at 40 µM: NTCC 10274, 24 h, read-out: IZ
Escherichia coli [9] = assay: Antibacterial activity against Escherichia coli ATCC 35218 at 20 uM/ml after 24 hrs by kirby-bauer method; format: functional; settings: for zone of inhibition at 20 µM: ATCC 35218, 24 h, read-out: IZ
Escherichia coli [10] = assay: Antibacterial activity against Escherichia coli ATCC 35218 at 40 uM/ml after 24 hrs by kirby-bauer method; format: functional; settings: ATCC 35218, 24 h, read-out: IZ
Pseudomonas aeruginosa [11] = assay: Antibacterial activity against Pseudomonas aeruginosa ATCC 15499 at 160 uM/ml after 24 hrs by kirby-bauer method; format: functional; settings: ATCC 15499, 24 h, read-out: IZ
Pseudomonas aeruginosa [12] = assay: Antibacterial activity against Pseudomonas aeruginosa ATCC 15499 at 20 uM/ml after 24 hrs by kirby-bauer method; format: functional; settings: ATCC 15499, 24 h, read-out: IZ
[13] = tested on: Burkholderia pseudomallei; assay: Antibacterial activity against Burkholderia pseudomallei NTCC 10274 at 20 uM/ml after 24 hrs by kirby-bauer method; format: functional; settings: for zone of inhibition at 20 µM: NTCC 10274, 24 h, read-out: IZ
[14] = tested on: Burkholderia pseudomallei; assay: Antibacterial activity against Burkholderia pseudomallei NTCC 10274 at 160 uM/ml after 24 hrs by kirby-bauer method; format: functional; settings: NTCC 10274, 24 h, read-out: IZ
Trichoderma viride [15] = assay: Antifungal activity against Trichoderma viride MTCC 1107 at 40 uM/ml after 48 hrs by paper disc diffusion method; format: functional; settings: MTCC 1107, 48 h, read-out: IZ
Trichoderma viride [16] = assay: Antifungal activity against Trichoderma viride MTCC 1107 at 160 uM/ml after 48 hrs by paper disc diffusion method; format: functional; settings: MTCC 1107, 48 h, read-out: IZ
[17] = tested on: Burkholderia pseudomallei; assay: Antibacterial activity against Burkholderia pseudomallei NTCC 10274 at 80 uM/ml after 24 hrs by kirby-bauer method; format: functional; settings: NTCC 10274, 24 h, read-out: IZ
Trichoderma viride [18] = assay: Antifungal activity against Trichoderma viride MTCC 1107 at 80 uM/ml after 48 hrs by paper disc diffusion method; format: functional; settings: MTCC 1107, 48 h, read-out: IZ
Escherichia coli [19] = assay: Antibacterial activity against Escherichia coli ATCC 35218 at 160 uM/ml after 24 hrs by kirby-bauer method; format: functional; settings: ATCC 35218, 24 h, read-out: IZ
Aspergillus niger [20] = assay: Antifungal activity against Aspergillus niger MTCC 1108 at 160 uM/ml after 48 hrs by paper disc diffusion method; format: functional; settings: for zone of inhibition at 160 µM: MTCC 1108, 48 h, read-out: IZ
Aspergillus flavus [21] = assay: Antifungal activity against Aspergillus flavus MTCC 1021 at 160 uM/ml after 48 hrs by paper disc diffusion method; format: functional; settings: for zone of inhibition at 160 µM: MTCC 1021, 48 h, read-out: IZ
Salmonella typhimurium [22] = assay: Antibacterial activity against Salmonella typhimurium ATCC 23564 at 20 uM/ml after 24 hrs by kirby-bauer method; format: functional
Trichoderma viride [23] = assay: Antifungal activity against Trichoderma viride MTCC 1107 at 20 uM/ml after 48 hrs by paper disc diffusion method; format: functional; settings: MTCC 1107, 48 h, read-out: IZ
Staphylococcus aureus [24] = assay: Antibacterial activity against Staphylococcus aureus ATCC 11632 at 20 uM/ml after 24 hrs by kirby-bauer method; format: functional
Escherichia coli [25] = assay: Antibacterial activity against Escherichia coli ATCC 35218 at 80 uM/ml after 24 hrs by kirby-bauer method; format: functional; settings: ATCC 35218, 24 h, read-out: IZ
Staphylococcus aureus [26] = assay: Antibacterial activity against Staphylococcus aureus ATCC 11632 at 160 uM/ml after 24 hrs by kirby-bauer method; format: functional; settings: for zone of inhibition at 160 µM: ATCC 11632, 24 h, read-out: IZ
Pseudomonas aeruginosa [27] = assay: Antibacterial activity against Pseudomonas aeruginosa ATCC 15499 at 40 uM/ml after 24 hrs by kirby-bauer method; format: functional; settings: ATCC 15499, 24 h, read-out: IZ
Pseudomonas aeruginosa [28] = assay: Antibacterial activity against Pseudomonas aeruginosa ATCC 15499 at 80 uM/ml after 24 hrs by kirby-bauer method; format: functional; settings: ATCC 15499, 24 h, read-out: IZ
Curvularia lunata [29] = assay: Antifungal activity against Curvularia lunata MTCC 581 at 40 uM/ml after 48 hrs by paper disc diffusion method; format: functional; settings: for zone of inhibition at 40 µM: MTCC 581, 48 h, read-out: IZ
Salmonella typhimurium [30] = assay: Antibacterial activity against Salmonella typhimurium ATCC 23564 at 40 uM/ml after 24 hrs by kirby-bauer method; format: functional
QG-56 = assay: Cytotoxicity against human QG56 cells after 48 hrs by MTT assay; format: functional, cell-based
Aspergillus flavus [31] = assay: Antifungal activity against Aspergillus flavus MTCC 1021 at 20 uM/ml after 48 hrs by paper disc diffusion method; format: functional
Aspergillus niger [32] = assay: Antifungal activity against Aspergillus niger MTCC 1108 at 20 uM/ml after 48 hrs by paper disc diffusion method; format: functional
Aspergillus niger [33] = assay: Antifungal activity against Aspergillus niger MTCC 1108 at 40 uM/ml after 48 hrs by paper disc diffusion method; format: functional
Aspergillus flavus [34] = assay: Antifungal activity against Aspergillus flavus MTCC 1021 at 40 uM/ml after 48 hrs by paper disc diffusion method; format: functional
Aspergillus flavus [35] = assay: Antifungal activity against Aspergillus flavus MTCC 1021 at 80 uM/ml after 48 hrs by paper disc diffusion method; format: functional
Aspergillus niger [36] = assay: Antifungal activity against Aspergillus niger MTCC 1108 at 80 uM/ml after 48 hrs by paper disc diffusion method; format: functional; settings: MTCC 1108, 48 h, read-out: IZ
[37] = Salmonella enterica subsp. enterica serovar Typhimurium
[38] = Salmonella enterica, ATCC 23564, 24 h, read-out: IZ

SMILES	IC50 (HepG2) [uM/ml]	zone of inhibition at 160 µM (Curvularia lunata [3]) [mm]	zone of inhibition at 80 µM (Curvularia lunata [4]) [mm]	IC50 (HCT-116) [uM/ml]	zone of inhibition at 20 µM (Escherichia coli [9]) [mm]	zone of inhibition at 40 µM (Escherichia coli [10]) [mm]	zone of inhibition at 160 µM (Pseudomonas aeruginosa [11]) [mm]	zone of inhibition at 20 µM (Pseudomonas aeruginosa [12]) [mm]	zone of inhibition at 160 µM [14] [mm]	zone of inhibition (Trichoderma viride [15]) [mm]	zone of inhibition at 160 µM (Trichoderma viride [16]) [mm]	zone of inhibition at 80 µM [17] [mm]	zone of inhibition at 80 µM (Trichoderma viride [18]) [mm]	zone of inhibition at 160 µM (Escherichia coli [19]) [mm]	zone of inhibition at 20 µM (Trichoderma viride [23]) [mm]	zone of inhibition at 80 µM (Escherichia coli [25]) [mm]	zone of inhibition at 40 µM (Pseudomonas aeruginosa [27]) [mm]	zone of inhibition at 80 µM (Pseudomonas aeruginosa [28]) [mm]	IC50 (QG-56) [uM/ml]	zone of inhibition at 40 µM [8] [mm]	also measured
COc1cc(/C=C/C(=O)C2=C(/C=C/c3ccc(O)c(OC)c3)NC(=O)NC2c2ccc([N+](=O)[O-])cc2)ccc1O (centres undefined)	100	11	9	50	12	15	19	9	12	19	21	10	21	18	17	16	14	18	100		inhibition zone (IZ) (Staphylococcus aureus [1]): inactive; zone of inhibition at 80 µM (Staphylococcus aureus [2]): 10 mm; inhibition zone (IZ) (Salmonella typhimurium [5]; [37]): inactive; zone of inhibition at 160 µM (Salmonella typhimurium [6]): 10 mm; inhibition zone (IZ) (Curvularia lunata [7]): inactive; inhibition zone (IZ) [8]: inactive; inhibition zone (IZ) [13]: inactive; inhibition zone (IZ) (Aspergillus niger [20]): inactive; inhibition zone (IZ) (Aspergillus flavus [21]): inactive; inhibition zone (IZ) (Salmonella typhimurium [22]; [37]): inactive; inhibition zone (IZ) (Staphylococcus aureus [24]): inactive; zone of inhibition at 160 µM (Staphylococcus aureus [26]): 11 mm; inhibition zone (IZ) (Curvularia lunata [29]): inactive; inhibition zone (IZ) (Salmonella typhimurium [30]; [37]): inactive
COc1cc(/C=C/C(=O)C2=C(/C=C/c3ccc(O)c(OC)c3)NC(=S)NC2c2ccccc2)ccc1O (centres undefined)	50	26	23	100	12	14	18	12	18	21	24	16	21	21	18	18	14	17	50	13	inhibition zone (IZ) (Salmonella typhimurium [6]): inactive; inhibition zone (IZ) (Aspergillus flavus [31]): inactive; zone of inhibition at 20 µM (Curvularia lunata [7]): 18 mm; inhibition zone (IZ) (Aspergillus niger [32]): inactive; zone of inhibition at 20 µM [13]: 11 mm; inhibition zone (IZ) (Aspergillus niger [33]): inactive; zone of inhibition at 160 µM (Aspergillus niger [20]): 16 mm; inhibition zone (IZ) (Aspergillus flavus [34]): inactive; inhibition zone (IZ) (Aspergillus flavus [35]): inactive; zone of inhibition at 160 µM (Aspergillus flavus [21]): 9 mm; inhibition zone (IZ) (Staphylococcus aureus [26]): inactive; zone of inhibition at 40 µM (Curvularia lunata [29]): 21 mm; zone of inhibition at 80 µM (Aspergillus niger [36]): 14 mm
CC1(C)S[C@@H]2[C@H](NC(=O)[C@H](N)c3ccccc3)C(=O)N2[C@H]1C(=O)O [AMPICILLIN]					30	30	39	31	46			41		34		32	34	36		39	zone of inhibition at 40 µM (Staphylococcus aureus [1]; ATCC 11632, 24 h, read-out: IZ): 29 mm; zone of inhibition at 80 µM (Staphylococcus aureus [2]): 30 mm; zone of inhibition at 80 µM (Salmonella typhimurium [5]; [38]): 45 mm; zone of inhibition at 160 µM (Salmonella typhimurium [6]): 51 mm; zone of inhibition at 20 µM [13]: 38 mm; zone of inhibition at 20 µM (Salmonella typhimurium [22]; [38]): 37 mm; zone of inhibition at 20 µM (Staphylococcus aureus [24]; ATCC 11632, 24 h, read-out: IZ): 28 mm; zone of inhibition at 160 µM (Staphylococcus aureus [26]): 37 mm; zone of inhibition at 40 µM (Salmonella typhimurium [30]; [38]): 44 mm
COc1ccc(C2NC(=S)NC(/C=C/c3ccc(O)c(OC)c3)=C2C(=O)/C=C/c2ccc(O)c(OC)c2)cc1 (centres undefined)	100	24	21	50		9	23	18	24	18	23	21	19	18	17	14	19	20	50	19	inhibition zone (IZ) (Salmonella typhimurium [6]): inactive; inhibition zone (IZ) (Aspergillus flavus [31]): inactive; zone of inhibition at 20 µM (Curvularia lunata [7]): 16 mm; inhibition zone (IZ) (Escherichia coli [9]): inactive; inhibition zone (IZ) (Aspergillus niger [32]): inactive; zone of inhibition at 20 µM [13]: 16 mm; inhibition zone (IZ) (Aspergillus niger [33]): inactive; zone of inhibition at 160 µM (Aspergillus niger [20]): 11 mm; inhibition zone (IZ) (Aspergillus flavus [34]): inactive; inhibition zone (IZ) (Aspergillus flavus [35]): inactive; zone of inhibition at 160 µM (Aspergillus flavus [21]): 9 mm; inhibition zone (IZ) (Staphylococcus aureus [26]): inactive; zone of inhibition at 40 µM (Curvularia lunata [29]): 18 mm; zone of inhibition at 80 µM (Aspergillus niger [36]): 9 mm
